Values after ≈ are worked out from the molar mass of the structure shown.
Tests used:
[1] = test system: MCF-7 (breast adenocarcinoma); assay: In vitro cytotoxicity, SRB cell growth assay, MCF-7; conditions: Homo sapiens, MCF7, 48 h, read-out: IC50 (μg/mL) MCF-7
Method: (§1) The in vitro cytotoxic activity of the newly synthesized compounds against human breast cell line (MCF7), non-small cell lung cancer NCIH460, CNS cancer SF-268 and WI 38 (normal fibroblast cells) were evaluated using doxorubicin as the reference drug according to the method reported by Skehan et al..
(§2) The newly synthesized compounds were evaluated in vitro against three human cancer cell lines; which are MCF-7 (breast adenocarcinoma), NCI-H460 (non-small cell lung cancer) and SF-268 (CNS cancer), and WI 38 (normal fibroblast cells) were used in this study. MCF-7 was obtained from the European Collection of Cell Cultures (ECACC, Salisbury, UK) but NCI-H460, SF-268 and WI 38 were kindly provided by the National Cancer Institute (NCI, Cairo, Egypt). They grow as monolayer and routinely maintained RPMI-1640 medium supplemented with 5% heat inactivated fetal bovine serum (FBS), 2 mM glutamine and antibiotics (penicillin 100 U/mL, streptomycin 100 µg/mL), at 37 °C in a humidified atmosphere containing 5% CO2. Exponentially growing cells were obtained by plating 1.5 × 10^5 cells/mL for MCF-7 and SF-268, and 0.75 × 10^4 cells/mL for NCI-H460 followed by 24 h of incubation. The effect of the vehicle solvent (DMSO) on the growth of these cell lines was evaluated in all experiments by exposing untreated control cells to the maximum concentration (0.5%) of DMSO used in each assay.
(§3) The effect of compounds on the in vitro growth of human tumor cell lines were evaluated according to the procedure adopted by the National Cancer Institute ([…]) in the “In vitro Anticancer Drug Discovery Screen” that uses the protein-binding dye sulforhodamine B (SRB) to assess cell growth. In the assay protocol, all cells were incubated at 37 °C under humidified atmosphere containing 5% CO2. Briefly, exponentially cells growing in 96-well plates were then exposed for 48 h to five serial concentrations of each compound, starting from a maximum concentration of 150 μg/mL. Following this exposure period adherent cells were fixed, washed and stained. The bound stain was solubilized and the absorbance was measured at 492 nm in a plate reader (Bio-Tek Instruments Inc., Power wave XS, Winston, NC, USA). For each test compound and cell line, a dose response curve was obtained and the inhibitory concentration of 50% (IC50), corresponding to the concentration of the compounds that inhibited 50% of the net cell growth was calculated as described elsewhere. Doxorubicin was used as a positive control and tested in the same manner.

[2] = test system: NCI-H460 (non-small cell lung cancer); assay: In vitro cytotoxicity, SRB cell growth assay, NCI-H460; conditions: Homo sapiens, NCI-H460, 48 h, read-out: IC50 (μg/mL) NCI-H460
Method: as §1, §2, §3

[3] = test system: SF-268 (CNS cancer); assay: In vitro cytotoxicity, SRB cell growth assay, SF-268; conditions: Homo sapiens, SF-268, 48 h, read-out: IC50 (μg/mL) SF-268
Method: as §1, §2, §3

[4] = test system: WI 38 (normal fibroblast cells); assay: In vitro cytotoxicity, SRB cell growth assay, normal cells WI 38; assay type: cell-based, human; conditions: 48 h exposure, non-cytotoxic = IC50 >100 μg/mL; for IC50: Homo sapiens, WI-38, 48 h
Method: as §1, §2, §3

[5] = test system: Bacillus subtilis; assay: Disk diffusion, Bacillus subtilis; assay type: cell-based; conditions: Gram positive, 8.0 mm disks, 10 μL
Method: (§4) The disk diffusion method was used for determination of the antimicrobial activity using ampicillin, gentamicin and amphotericin B as reference drugs. The results were recorded for each compounds as the average diameter as inhibition zones (IZ) of bacterial or fungal growth around the discs in mm as shown in Table 2.
(§5) Antimicrobial activities were carried out against highly pathogenic strains; three strains of Gram positive bacteria (Bacillus subtilis, Staphylococcus aureus and Streptococcus faecalis), four strains of Gram negative bacteria (Escherichia coli, Neisseria gonorrhoeae, Pseudomonas aeruginosa and Salmonella typhimurium) and three fungi strains (Aspergillus flavus, Aspergillus fumigatus and Candida albicans) isolated from primary agar plates. Antimicrobial activity of the tested samples was determined using a modified Kriby-Bauer disk diffusion method. Briefly, 100 µL of the test bacteria/fungi were grown in 10 mL of fresh media until they reached a count approximately 10^8 cells/mL for bacteria or 10^5 cells/mL for fungi. 100 µL of microbial suspension was spread onto agar plates corresponding to the broth in which they were maintained. The inoculated plates of bacterial strains were incubated at 35–37 °C for 24–48 h, while the inoculated plates of fungal strains such as A. flavus and A. fumigatus were incubated at 25 °C for 48 h and yeast as C. albicans was incubated at 30 °C for 24–48 h.
(§6) The agar disk diffusion (qualitative) method was used in this investigation for determination of the preliminary antibacterial and antifungal activities. The agar used was Mueller-Hinton agar plates that are rigorously tested for composition and pH. Further the depth of the agar in the plate is a factor to be considered in the disk diffusion method.
(§7) Reference drugs: ampicillin was used as a standard antibacterial drug for Gram positive bacteria, gentamicin as a standard antibacterial drug for Gram negative bacteria and amphotericin B as antifungal standard drug.
(§8) Bacterial and fungal strains were spread onto the surface of the agar plates using sterile cotton swabs. For evaluation of antibacterial activities, blank paper disks (Schleicher & Schuell, Alicante, Spain) with a diameter of 8.0 mm were saturated with 10 μL of tested concentration of the stock solutions. Disks were dried and then placed onto inoculated agar plates. The plates of bacterial strains were reincubated at 35–37 °C for 24–48 h, while the plates of fungal strains such as A. flavus and A. fumigatus were reincubated at 25 °C for 48 h and yeast as C. albicans was reincubated at 30 °C for 24–48 h as mentioned above. […] For an accurate analysis, tests were run in triplicate for each strain to avoid any error as described in Table 2.

[6] = test system: Staphylococcus aureus; assay: Disk diffusion, Staphylococcus aureus; assay type: cell-based; conditions: Gram positive, 8.0 mm disks, 10 μL
Method: as §4, §5, §6, §7, §8

[7] = test system: Streptococcus faecalis; assay: Disk diffusion, Streptococcus faecalis; assay type: cell-based; conditions: Gram positive, 8.0 mm disks, 10 μL
Method: as §4, §5, §6, §7, §8

[8] = test system: Escherichia coli; assay: Disk diffusion, Escherichia coli; assay type: cell-based; conditions: Gram negative, 8.0 mm disks, 10 μL
Method: as §4, §5, §6, §7, §8

[9] = test system: Neisseria gonorrhoeae; assay: Disk diffusion, Neisseria gonorrhoeae; assay type: cell-based; conditions: Gram negative, 8.0 mm disks, 10 μL
Method: as §4, §5, §6, §7, §8

[10] = test system: Pseudomonas aeruginosa; assay: Disk diffusion, Pseudomonas aeruginosa; assay type: cell-based; conditions: Gram negative, 8.0 mm disks, 10 μL
Method: as §4, §5, §6, §7, §8

[11] = test system: Salmonella typhimurium; assay: Disk diffusion, Salmonella typhimurium; assay type: cell-based; conditions: Gram negative, 8.0 mm disks, 10 μL
Method: as §4, §5, §6, §7, §8

[12] = test system: Aspergillus flavus; assay: Disk diffusion, Aspergillus flavus; assay type: cell-based; conditions: Fungi, 8.0 mm disks, 10 μL
Method: as §4, §5, §6, §7, §8
(§9) Disk diffusion method for filamentous fungi testing by using approved standard method (M02-A11) developed by the CLSI for evaluating the susceptibilities of filamentous fungi to antifungal agents. Disk diffusion method for yeasts developed by using approved standard method (M44-A2) by the CLSI [44]. Agar-based methods such as disk diffusion can be good alternatives because they are simpler and faster than broth-based methods.

[13] = test system: Aspergillus fumigatus; assay: Disk diffusion, Aspergillus fumigatus; assay type: cell-based; conditions: Fungi, 8.0 mm disks, 10 μL
Method: as §4, §5, §6, §7, §8, §9

[14] = test system: Candida albicans; assay: Disk diffusion, Candida albicans; assay type: cell-based; conditions: Fungi, 8.0 mm disks, 10 μL
Method: as §4, §5, §6, §7, §8, §9

| melting point | SMILES | IC50 [1] | IC50 [2] | IC50 [3] | IC50 [4] | Inhibition Zone Diameter (IZ) (mm) Bacillus subtilis [5] | Inhibition Zone Diameter (IZ) (mm) Staphylococcus aureus [6] | Inhibition Zone Diameter (IZ) (mm) Streptococcus faecalis [7] | Inhibition Zone Diameter (IZ) (mm) Escherichia coli [8] | Inhibition Zone Diameter (IZ) (mm) Neisseria gonorrhoeae [9] | Inhibition Zone Diameter (IZ) (mm) Pseudomonas aeruginosa [10] | Inhibition Zone Diameter (IZ) (mm) Salmonella typhimurium [11] | Inhibition Zone Diameter (IZ) (mm) Aspergillus flavus [12] | Inhibition Zone Diameter (IZ) (mm) Aspergillus fumigatus [13] | Inhibition Zone Diameter (IZ) (mm) Candida albicans [14] | IC50 (μg/mL) WI 38 [4] |
| --- | --- | --- | --- | --- | --- | --- | --- | --- | --- | --- | --- | --- | --- | --- | --- | --- |
| 81 to 83 °C | Cc1cc(C)n(-c2nc3cc(Br)ccc3nc2Cl)n1 [Compound 6, 6-Bromo-2-chloro-3-(3,5-dimethyl-1H-pyrazol-1-yl)quinoxaline] | 22.4 ± 10.4 µg/mL (≈ 66.4 µM) | 30.5 ± 10.8 µg/mL (≈ 90.3 µM) | 26.5 ± 2.87 µg/mL (≈ 78.5 µM) | 28.2 ± 0.87 µg/mL (≈ 83.7 µM) | 11 mm | 9 mm | 11 mm | 11 mm | 11 mm | 9 mm | 8 mm | R (R (IZ = 0 mm)) | R (R (IZ = 0 mm)) | R (R (IZ = 0 mm)) |  |
| 237 to 239 °C | NNc1nc2cc(Br)ccc2n2nnnc12 [Compound 7, 7-Bromo-4-hydrazinyltetrazolo[1,5-a]quinoxaline] | 26.4 ± 2.1 µg/mL (≈ 94.3 µM) | 12.4 ± 3.01 µg/mL (≈ 44.3 µM) | 10.6 ± 2.83 µg/mL (≈ 38 µM) |  | 11 mm | 10 mm | 11 mm | 10 mm | 10 mm | 10 mm | 9 mm | R (R (IZ = 0 mm)) | R (R (IZ = 0 mm)) | R (R (IZ = 0 mm)) | non-cytotoxic |
|  | CC1(C)S[C@@H]2[C@H](NC(=O)[C@H](N)c3ccccc3)C(=O)N2[C@H]1C(=O)O [Ampicillin, reference compound] |  |  |  |  | 20 mm | 22 mm | 19 mm |  |  |  |  |  |  |  |  |
|  | COc1cccc2c1C(=O)c1c(O)c3c(c(O)c1C2=O)C[C@@](O)(C(=O)CO)C[C@@H]3O[C@H]1C[C@H](N)[C@H](O)[C@H](C)O1 [Doxorubicin, reference compound] | 0.04 ± 0.008 µg/mL (≈ 0.0736 µM) | 0.09 ± 0.008 µg/mL (≈ 0.166 µM) | 0.09 ± 0.007 µg/mL (≈ 0.166 µM) |  |  |  |  |  |  |  |  |  |  |  | non-cytotoxic |
|  | C[C@@H]1[C@H](O)[C@@H](C)/C=C/C=C/C=C/C=C/C=C/C=C/C=C/[C@H](O[C@@H]2O[C@H](C)[C@@H](O)[C@H](N)[C@@H]2O)C[C@@H]2O[C@](O)(C[C@@H](O)C[C@@H](O)[C@H](O)CC[C@@H](O)C[C@@H](O)CC(=O)O[C@H]1C)C[C@H](O)[C@H]2C(=O)O [Amphotericin B, reference compound] |  |  |  |  |  |  |  |  |  |  |  | 17 mm | 23 mm | 19 mm |  |
|  | Cc1c[nH]nc2c3n[nH]cc(C)n-3c3cc(Br)ccc3n1-2 [Compound 12, 7-Bromo-4,11-dimethyl-2,13-dihydrobis[1,2,4]triazino[4,3-a:3',4'-c]quinoxaline] | 35.2 ± 4.18 µg/mL (≈ 102 µM) | 34 ± 6.05 µg/mL (≈ 98.6 µM) | 22.1 ± 2.81 µg/mL (≈ 64 µM) | 23 ± 8.2 µg/mL (≈ 66.5 µM) | 18 mm | 19 mm | 18 mm | 17 mm | R (R (IZ = 0 mm)) | 20 mm | 18 mm | R (R (IZ = 0 mm)) | R (R (IZ = 0 mm)) | R (R (IZ = 0 mm)) |  |
|  | Cc1cc(C)n(-c2nc3ccc(Br)cc3nc2-n2nc(C)cc2C)n1 [Compound 15, 6-Bromo-2,3-bis(3,5-dimethyl-1H-pyrazol-1-yl)quinoxaline] | 28.4 ± 5.8 µg/mL (≈ 71.5 µM) | 22.7 ± 8.12 µg/mL (≈ 57.2 µM) | 30.2 ± 2.04 µg/mL (≈ 76.1 µM) | 18.2 ± 4.03 µg/mL (≈ 45.7 µM) | 10 mm | 9 mm | 9 mm | 10 mm | 9 mm | 9 mm | 10 mm | R (R (IZ = 0 mm)) | R (R (IZ = 0 mm)) | R (R (IZ = 0 mm)) |  |
|  | CNC(C)C1CCC(N)C(OC2C(N)CC(N)C(OC3OCC(C)(O)C(NC)C3O)C2O)O1 (stereo not drawn) [Gentamicin, reference compound] |  |  |  |  |  |  |  | 20 mm | 18 mm | 17 mm | 23 mm |  |  |  |  |
| 152 to 154 °C | CC1=NN(c2nc3ccc(Br)cc3nc2N2N=C(C)CC2=O)C(=O)C1 [Compound 17, 6-Bromo-2,3-bis(3-methyl-1H-pyrazol-5(4H)-one)quinoxaline] | 21.23 ± 0.14 µg/mL (≈ 52.9 µM) | 15.81 ± 0.1 µg/mL (≈ 39.4 µM) | 21.3 ± 2.12 µg/mL (≈ 53.2 µM) | 21.4 ± 2.02 µg/mL (≈ 53.3 µM) | 7 mm | 8 mm | 10 mm | 11 mm | 6 mm | 8 mm | 5 mm | R (R (IZ = 0 mm)) | R (R (IZ = 0 mm)) | R (R (IZ = 0 mm)) |  |
